Assay: Inhibition of peptide deformylase using N-formylmethionine-alanine-serineas substrate incubated for 10 min before substrate addition by PDF-FDH coupled assay

In order of falling pIC50:
1. CCCC[C@@H](C(=O)N1CCC[C@H]1C(=O)Nc1ccc(Cl)c(Cl)c1)[C@H](F)C(=O)NO  9
2. Cc1nc(NC(=O)[C@@H]2CCCN2C(=O)N(CCC2CCCC2)CC(=O)NO)sc1C  8.7
3. CCCC[C@@H](C(=O)N1CCC[C@H]1C(=O)Nc1nc(C)c(C)s1)[C@H](F)C(=O)NO  8.7
4. CCCC[C@@H](C(=O)N1CCC[C@H]1C(=O)Nc1nc(C)c(C)s1)[C@@H](F)C(=O)NO  8.7
5. CCCC[C@@H](C(=O)N1CCC[C@H]1C(=O)N1CCN(c2ncccn2)CC1)[C@H](O)C(=O)NO  8.52
6. Cc1nc(NC(=O)[C@@H]2CCCN2C(=O)N(CCC(C)C)CC(=O)NO)sc1C  8.52
7. CCCC[C@H](CC(=O)NO)C(=O)N1CCC[C@H]1C(=O)Nc1nc2ccccc2s1  8.52
8. CCCC[C@@H](C(=O)N1CCC[C@H]1C(=O)NC1CCCCC1)[C@H](O)C(=O)NO  8.52
9. CCCC[C@@H](C(=O)N1CCC[C@H]1C(=O)N1CCN(c2ccccc2F)CC1)[C@H](O)C(=O)NO  8.3
10. CCCC[C@@H](C(=O)N1CCC[C@H]1C(=O)OC(C)(C)C)[C@@H](O)C(=O)NO  8.22
11. CCCC[C@@H](C(=O)N1CCC[C@H]1C(=O)N1CCN(c2ccccc2F)CC1)[C@H](F)C(=O)NO  8.22
12. CCCC[C@@H](C(=O)N1CCC[C@H]1C(=O)N1CCN(c2ncccn2)CC1)[C@H](F)C(=O)NO  8.22
13. CCCC[C@@H](C(=O)N1CC[C@H]1C(=O)NCCC)[C@H](O)C(=O)NO  8.17
14. CCCC[C@@H](C(=O)N1CCCC[C@H]1C(=O)NCCC)[C@H](O)C(=O)NO  8.17
15. CCCC[C@@H](C(=O)N1CCC[C@H]1C(=O)NCC(O)CC)[C@H](F)C(=O)NO (some centres undefined)  8.15
16. CCCC[C@@H](C(=O)N1CCC[C@H]1C(=O)NC(C)C)[C@H](O)C(=O)NO  8.15
17. O=C(CN(CCC1CCCC1)C(=O)N1CCC[C@H]1C(=O)Nc1ccc2c(c1)OCO2)NO  8.1
18. CCCC[C@@H](C(=O)N1CCC[C@H]1C(=O)NCCC)[C@H](O)C(=O)NO  8.1
19. CCCCCNC(=O)[C@@H]1CCCN1C(=O)[C@H](CCCC)[C@H](O)C(=O)NO  8.1
20. CCCC[C@@H](C(=O)N1CCC[C@H]1C(=O)NC(C)(C)CC)[C@H](O)C(=O)NO  8.1
21. CCCC[C@H](CC(=O)NO)C(=O)N1CCC[C@H]1C(=O)Nc1nc(-c2ccccc2)cs1  8.04
22. CCCC[C@@H](C(=O)N1CCC[C@H]1C(=O)NC1CCCCC1)[C@H](F)C(=O)NO  8.04
23. CCCC[C@H](CC(=O)NO)C(=O)N1CCC[C@H]1C(=O)NC  8
24. CCCC[C@@H](C(=O)N1CCC[C@H]1C(=O)NC)[C@H](O)C(=O)NO  8
25. CC(C)CCN(CC(=O)NO)C(=O)N1CCC[C@H]1C(=O)Nc1ccc2c(c1)OCO2  7.96
26. Cc1nnc(NC(=O)[C@@H]2CCCN2C(=O)N(CCC(C)C)CC(=O)NO)s1  7.92
27. CC(C)CCNC(=O)[C@@H]1CCCN1C(=O)N(CCC(C)C)CC(=O)NO  7.92
28. CCCC[C@@H](C(=O)N1CCC[C@H]1C(=O)N1CCCCC1)[C@H](O)C(=O)NO  7.89
29. CCCC[C@@H](C(=O)N1CCC[C@H]1C(=O)NCCC)[C@H](F)C(=O)NO  7.89
30. CCCCCNC(=O)[C@@H]1CCCN1C(=O)[C@H](CCCC)[C@H](F)C(=O)NO  7.89
31. CCCC[C@@H](C(=O)N1CCC[C@H]1C(=O)N1CCOCC1)[C@H](F)C(=O)NO  7.89
32. CCCCNC(=O)[C@@H]1CCCN1C(=O)[C@H](CCCC)[C@H](F)C(=O)NO  7.8
33. C=CCNC(=O)[C@@H]1CCCN1C(=O)[C@H](CCCC)[C@@H](F)C(=O)NO  7.8
34. O=C(CN(CCC1CCCC1)C(=O)N1CCC[C@H]1C(=O)Nc1cccc(O)c1)NO  7.77
35. CCCC[C@@H](C(=O)N1CCC[C@H]1C(=O)N1CCC1)[C@H](O)C(=O)NO  7.77
36. CCc1nnc(NC(=O)[C@@H]2CCCN2C(=O)N(CCC(C)C)CC(=O)NO)s1  7.74
37. O=C(CN(CCC1CCCC1)C(=O)N1CCC[C@H]1C(=O)Nc1ncccn1)NO  7.68
38. CCCC[C@@H](C(=O)N1CCC[C@H]1C(=O)N1CCCCC1)[C@H](F)C(=O)NO  7.66
39. CCCC[C@@H](C(=O)N1CCC[C@H]1C(=O)N1CCCC1)[C@H](O)C(=O)NO  7.62
40. CCCC[C@@H](C(=O)N1CCC[C@H]1C(=O)NC)[C@@H](F)C(=O)NO  7.57
41. CCCC[C@@H](C(=O)N1CCC[C@H]1C(=O)N1CCC1)[C@H](F)C(=O)NO  7.54
42. CCCC[C@@H](C(=O)N1CCC[C@H]1C(=O)OC(C)(C)C)[C@H](OS(=O)(=O)O)C(=O)NO  7.52
43. CCCC[C@@H](C(=O)N1CCC[C@H]1C(=O)OC(C)(C)C)[C@@H](OC)C(=O)NO  7.3
44. O=C(CN(CCC1CCCC1)C(=O)N1CCC[C@H]1C(=O)Nc1cnccn1)NO  7.27
45. CNC(=O)[C@@H]1CCCN1C(=O)N(CCC(C)C)CC(=O)NO  7.21
46. Cc1cnc(NC(=O)[C@@H]2CCCN2C(=O)N(CCC(C)C)CC(=O)NO)s1  7.2
47. O=C(CN(CCC1CCCC1)C(=O)N1CCC[C@H]1C(=O)Nc1nccc(-c2ccccc2)n1)NO  7.17
48. CC(C)CCN(CC(=O)NO)C(=O)N1CCC[C@H]1C(=O)Nc1nnc(-c2ccccc2)s1  7.01
49. CC(C)CCN(CC(=O)NO)C(=O)N1CCC[C@H]1C(=O)Nc1nccs1  6.49
